{
  "source": "patent US4880817A",
  "about": "“O-functionalized derivatives of substituted isoquinolin-3-ols having cardiotonic and/or phosphodiesterase fraction III inhibiting properties and/or renal vasodilating properties” (Ortho Pharmaceutical Corporation, priority 1987, dated 1989)",
  "tested_on": "adult mongrel dogs",
  "test": "Renal vasodilating activity in anesthetized dogs",
  "type": "in vivo, mongrel dog",
  "conditions": "for change in vivo at 1.34 mg/kg / change in vivo at 6.2 mg/kg / change in vivo at 1.2 mg/kg: Canis lupus familiaris; for change in vivo at 1.34 mg/kg: dose 1.34 mpk",
  "method": "Goldberg et al., J. Pharmacol. Exp. Ther., 163, 188 (1968), performed an investigation of the structural requirements for dopamine-like renal vasodilation of phenethylamines and apomorphine. The following procedure is a variation of the assay described in that report.\nAdult mongrel dogs were anesthetized and surgically prepared for electromagnetic measurement of renal artery blood flow. A carotid artery was cannulated for measuring arterial blood pressure and drugs were administered intravenously or intraarterially (via the renal artery). Heart rate was monitored with a cardiotachometer. Renal vascular resistance was calculated as the ratio of mean arterial blood pressure to renal artery blood flow. Dopamine was infused intravenously at 3 μg/kg/min for ten minutes (at an infusion rate of about 1 ml/min) to determine responsiveness of each dog to renal dopamine receptor stimulation. Cumulative dose-response data were obtained by infusing a compound of this invention at progressively increasing (usually three-fold) infusion rates, each dose being infused for five minutes. The maximum percent change from pre-drug control in renal artery blood flow (or in renal vascular resistance) was determined for each infusion dose.\nRBF, RVR, MABP, and HR values are percent changes in renal blood flow, renal vascular resistance, mean arterial blood pressure, and heart rate, respectively, relative to control values.",
  "key": {"[1]": {"conditions": "dose 6.2 mpk, relative to controls, read-out: HR: percent change in heart rate"}, "[2]": {"conditions": "dose 6.2 mpk, relative to controls, read-out: MABP: percent change in mean arterial blood pressure"}, "[3]": {"conditions": "dose 6.2 mpk, relative to controls, read-out: RBF: percent change in renal blood flow"}, "[4]": {"conditions": "dose 6.2 mpk, relative to controls, read-out: RVR: percent change in renal vascular resistance"}, "[5]": {"conditions": "read-out: HR: percent change in heart rate, dose 6.2 mpk, relative to controls"}, "[6]": {"conditions": "read-out: MABP: percent change in mean arterial blood pressure, dose 6.2 mpk, relative to controls"}, "[7]": {"conditions": "read-out: RBF: percent change in renal blood flow, dose 6.2 mpk, relative to controls"}, "[8]": {"conditions": "read-out: RVR: percent change in renal vascular resistance, dose 6.2 mpk, relative to controls"}, "[9]": {"conditions": "dose 1.2 mpk, relative to controls, read-out: HR: percent change in heart rate"}, "[10]": {"conditions": "dose 1.2 mpk, relative to controls, read-out: MABP: percent change in mean arterial blood pressure"}, "[11]": {"conditions": "dose 1.2 mpk, relative to controls, read-out: RBF: percent change in renal blood flow"}, "[12]": {"conditions": "dose 1.2 mpk, relative to controls, read-out: RVR: percent change in renal vascular resistance"}, "[13]": {"conditions": "dose 1.2 mpk, relative to controls, 1.2 mg/kg"}, "[14]": {"conditions": "read-out: HR: percent change in heart rate, dose 1.2 mpk, relative to controls"}, "[15]": {"conditions": "read-out: MABP: percent change in mean arterial blood pressure, dose 1.2 mpk, relative to controls"}, "[16]": {"conditions": "read-out: RBF: percent change in renal blood flow, dose 1.2 mpk, relative to controls"}, "[17]": {"conditions": "read-out: RVR: percent change in renal vascular resistance, dose 1.2 mpk, relative to controls"}},
  "note": "Where two headings read alike, the source gives them in different places.",
  "data": [
    {"smiles": "COc1cc2c(C)nc(OC(C)=O)c(Br)c2cc1OC", "note": "[Cmpd 1]", "values": [
      {"measurement": "change in vivo at 1.34 mg/kg", "setting": "relative to controls, read-out: HR: percent change in heart rate", "value": 37, "unit": "%"},
      {"measurement": "change in vivo at 1.34 mg/kg", "setting": "relative to controls, read-out: MABP: percent change in mean arterial blood pressure", "value": -21, "unit": "%"},
      {"measurement": "change in vivo at 1.34 mg/kg", "setting": "relative to controls, read-out: RBF: percent change in renal blood flow", "value": 22, "unit": "%"},
      {"measurement": "change in vivo at 1.34 mg/kg", "setting": "relative to controls, read-out: RVR: percent change in renal vascular resistance", "value": 35, "unit": "%"}
    ]},
    {"smiles": "COc1cc2c(C)nc(OC(C)=O)c([N+](=O)[O-])c2cc1OC", "note": "[Cmpd 2, 3-Acetoxy-6,7-dimethoxy-1-methyl-4-nitroisoquinoline]", "values": [
      {"measurement": "change in vivo at 6.2 mg/kg", "setting": "[1]", "value": -2, "unit": "%"},
      {"measurement": "change in vivo at 6.2 mg/kg", "setting": "[2]", "value": -8, "unit": "%"},
      {"measurement": "change in vivo at 6.2 mg/kg", "setting": "[3]", "value": 17, "unit": "%"},
      {"measurement": "change in vivo at 6.2 mg/kg", "setting": "[4]", "value": -16, "unit": "%"}
    ]},
    {"smiles": "CCOc1cc2c(C)nc(OC(=O)C(C)C)c([N+](=O)[O-])c2cc1OC", "note": "[Cmpd 5]", "values": [
      {"measurement": "change in vivo at 6.2 mg/kg", "setting": "[1]", "value": 36, "unit": "%"},
      {"measurement": "change in vivo at 6.2 mg/kg", "setting": "[2]", "value": -10, "unit": "%"},
      {"measurement": "change in vivo at 6.2 mg/kg", "setting": "[3]", "value": 42, "unit": "%"},
      {"measurement": "change in vivo at 6.2 mg/kg", "setting": "[4]", "value": -36, "unit": "%"}
    ]},
    {"smiles": "CCOc1cc2c(C)nc(OS(C)(=O)=O)c([N+](=O)[O-])c2cc1OC", "note": "[Cmpd 6]", "values": [
      {"measurement": "change in vivo at 6.2 mg/kg", "setting": "[1]", "value": -10, "unit": "%"},
      {"measurement": "change in vivo at 6.2 mg/kg", "setting": "[2]", "value": -2, "unit": "%"},
      {"measurement": "change in vivo at 6.2 mg/kg", "setting": "[3]", "value": 38, "unit": "%"},
      {"measurement": "change in vivo at 6.2 mg/kg", "setting": "[4]", "value": -28, "unit": "%"}
    ]},
    {"smiles": "COc1cc2c(C)nc(OC(=O)c3ccc(Cl)cc3)c([N+](=O)[O-])c2cc1OC", "note": "[Cmpd 15]", "values": [
      {"measurement": "change in vivo at 6.2 mg/kg", "setting": "[1]", "value": 3, "unit": "%"},
      {"measurement": "change in vivo at 6.2 mg/kg", "setting": "[2]", "value": -1, "unit": "%"},
      {"measurement": "change in vivo at 6.2 mg/kg", "setting": "[3]", "value": 15, "unit": "%"},
      {"measurement": "change in vivo at 6.2 mg/kg", "setting": "[4]", "value": -14, "unit": "%"}
    ]},
    {"smiles": "COc1cc2c(C)nc(OS(C)(=O)=O)c([N+](=O)[O-])c2cc1OC", "note": "[Cmpd 16]", "values": [
      {"measurement": "change in vivo at 6.2 mg/kg", "setting": "[1]", "value": 19, "unit": "%"},
      {"measurement": "change in vivo at 6.2 mg/kg", "setting": "[2]", "value": -6, "unit": "%"},
      {"measurement": "change in vivo at 6.2 mg/kg", "setting": "[3]", "value": 12, "unit": "%"},
      {"measurement": "change in vivo at 6.2 mg/kg", "setting": "[4]", "value": -16, "unit": "%"}
    ]},
    {"smiles": "COc1cc2c(C)nc(OC(C)=O)c(N(C(C)=O)C(C)=O)c2cc1OC", "note": "[Cmpd 17, 4-N,N-Diacetamido-3-acetoxy-6,7-dimethoxy-1-methylisoquinoline]", "values": [
      {"measurement": "change in vivo at 6.2 mg/kg", "setting": "[1]", "value": -12, "unit": "%"},
      {"measurement": "change in vivo at 6.2 mg/kg", "setting": "[2]", "value": 13, "unit": "%"},
      {"measurement": "change in vivo at 6.2 mg/kg", "setting": "[3]", "value": 63, "unit": "%"},
      {"measurement": "change in vivo at 6.2 mg/kg", "setting": "[4]", "value": -24, "unit": "%"}
    ]},
    {"smiles": "CCOc1cc2c([N+](=O)[O-])c(OC(=O)N(C)C)nc(C)c2cc1OC", "note": "[Cmpd 24]", "values": [
      {"measurement": "change in vivo at 6.2 mg/kg", "setting": "[5]", "value": 53, "unit": "%"},
      {"measurement": "change in vivo at 6.2 mg/kg", "setting": "[6]", "value": -12, "unit": "%"},
      {"measurement": "change in vivo at 6.2 mg/kg", "setting": "[7]", "value": 22, "unit": "%"},
      {"measurement": "change in vivo at 6.2 mg/kg", "setting": "[8]", "value": -28, "unit": "%"}
    ]},
    {"smiles": "COc1ccc(NC(=O)Nc2c(OC(C)=O)nc(C)c3cc(OC)c(OC)cc23)cc1", "note": "[Cmpd 32]", "values": [
      {"measurement": "change in vivo at 1.2 mg/kg", "setting": "[9]", "value": -23, "unit": "%"},
      {"measurement": "change in vivo at 1.2 mg/kg", "setting": "[10]", "value": 1, "unit": "%"},
      {"measurement": "change in vivo at 1.2 mg/kg", "setting": "[11]", "value": 6, "unit": "%"},
      {"measurement": "change in vivo at 1.2 mg/kg", "setting": "[12]", "value": -4, "unit": "%"}
    ]},
    {"smiles": "CCCCNC(=O)Nc1c(OC(=O)N(CC)CC)nc(C)c2cc(OC)c(OC)cc12", "note": "[Cmpd 38, 4-[N'-(n-Butylureido)]-3-diethylcarbamyloxy-6,7-dimethoxy-1-methylisoquinoline]", "values": [
      {"measurement": "change in vivo at 6.2 mg/kg", "setting": "[5]", "value": -4, "unit": "%"},
      {"measurement": "change in vivo at 6.2 mg/kg", "setting": "[6]", "value": 5, "unit": "%"},
      {"measurement": "change in vivo at 6.2 mg/kg", "setting": "[7]", "value": 34, "unit": "%"},
      {"measurement": "change in vivo at 6.2 mg/kg", "setting": "[8]", "value": -21, "unit": "%"}
    ]},
    {"smiles": "C=CCNC(=O)Nc1c(OC(=O)N(C)C)nc(C)c2cc(OC)c(OC)cc12", "note": "[Cmpd 40]", "values": [
      {"measurement": "MABP: percent change in mean arterial blood pressure", "setting": "[13]", "value": -1, "unit": "percent change"},
      {"measurement": "RBF: percent change in renal blood flow", "setting": "[13]", "value": "+9 percent change"},
      {"measurement": "RVR: percent change in renal vascular resistance", "setting": "[13]", "value": -9, "unit": "percent change"}
    ]},
    {"smiles": "CCCCNC(=O)Nc1c(OC(=O)N(CC)CC)nc(C)c2cc(OCC)c(OC)cc12", "note": "[Cmpd 45]", "values": [
      {"measurement": "change in vivo at 1.2 mg/kg", "setting": "[14]", "value": 11, "unit": "%"},
      {"measurement": "change in vivo at 1.2 mg/kg", "setting": "[15]", "value": 12, "unit": "%"},
      {"measurement": "change in vivo at 1.2 mg/kg", "setting": "[16]", "value": 15, "unit": "%"},
      {"measurement": "change in vivo at 1.2 mg/kg", "setting": "[17]", "value": -2, "unit": "%"}
    ]},
    {"smiles": "CCN(CC)C(=O)Oc1nc(C)c2cc(OC)c(OC)cc2c1NC(N)=O", "note": "[Cmpd 47, 3-Diethylcarbamyloxy-6,7-dimethoxy-1-methyl-4-ureidoisoquinoline]", "values": [
      {"measurement": "change in vivo at 1.2 mg/kg", "setting": "[14]", "value": -3, "unit": "%"},
      {"measurement": "change in vivo at 1.2 mg/kg", "setting": "[15]", "value": 11, "unit": "%"},
      {"measurement": "change in vivo at 1.2 mg/kg", "setting": "[16]", "value": 17, "unit": "%"},
      {"measurement": "change in vivo at 1.2 mg/kg", "setting": "[17]", "value": -4, "unit": "%"}
    ]},
    {"smiles": "C=CCNC(=O)N(C(=O)NCC=C)c1c(OC(=O)N(CC)CC)nc(C)c2cc(OC)c(OC)cc12", "note": "[Cmpd 49]", "values": [
      {"measurement": "change in vivo at 1.2 mg/kg", "setting": "[9]", "value": -6, "unit": "%"},
      {"measurement": "change in vivo at 1.2 mg/kg", "setting": "[10]", "value": 2, "unit": "%"},
      {"measurement": "change in vivo at 1.2 mg/kg", "setting": "[11]", "value": 14, "unit": "%"},
      {"measurement": "change in vivo at 1.2 mg/kg", "setting": "[12]", "value": -8, "unit": "%"}
    ]},
    {"smiles": "C=CCNC(=O)Nc1c(OC(=O)N(CC)CC)nc(C)c2cc(OC)c(OC)cc12", "note": "[Cmpd 50]", "values": [
      {"measurement": "change in vivo at 1.2 mg/kg", "setting": "[14]", "value": -2, "unit": "%"},
      {"measurement": "change in vivo at 1.2 mg/kg", "setting": "[15]", "value": 0, "unit": "%"},
      {"measurement": "change in vivo at 1.2 mg/kg", "setting": "[16]", "value": 20, "unit": "%"},
      {"measurement": "change in vivo at 1.2 mg/kg", "setting": "[17]", "value": -16, "unit": "%"}
    ]}
  ]
}
